In patent publication US20100204224A1, “AZACYCLIC COMPOUNDS AS INHIBITORS OF SENSORY NEURONE SPECIFIC SODIUM CHANNELS” (priority 2005, published 2010):
Read-outs that look alike come from different tables or passages of the source.

Target: T1, human Nav1.8 (hNav1.8) ion channel (Homo sapiens, UniProt Q9Y5Y9)
T1 construct: expressed in transfected cells
Test: Inhibition of human Nav1.8 stably expressed in SH-SY-5Y cells (membrane potential dye fluorescence assay)
Type: cell-based
Details: FLIPR membrane potential dye, 10 μM pyrethroid, 250 nM TTX, test concentration range 100 μM-0.05 μM

[1] = SH-SY-5Y hNav1.8 cells, read-out: hNav1.8 IC50
[2] = hNav1.8 IC50, SH-SY-5Y hNav1.8 cells

T1 sequence (Q9Y5Y9 whole entry): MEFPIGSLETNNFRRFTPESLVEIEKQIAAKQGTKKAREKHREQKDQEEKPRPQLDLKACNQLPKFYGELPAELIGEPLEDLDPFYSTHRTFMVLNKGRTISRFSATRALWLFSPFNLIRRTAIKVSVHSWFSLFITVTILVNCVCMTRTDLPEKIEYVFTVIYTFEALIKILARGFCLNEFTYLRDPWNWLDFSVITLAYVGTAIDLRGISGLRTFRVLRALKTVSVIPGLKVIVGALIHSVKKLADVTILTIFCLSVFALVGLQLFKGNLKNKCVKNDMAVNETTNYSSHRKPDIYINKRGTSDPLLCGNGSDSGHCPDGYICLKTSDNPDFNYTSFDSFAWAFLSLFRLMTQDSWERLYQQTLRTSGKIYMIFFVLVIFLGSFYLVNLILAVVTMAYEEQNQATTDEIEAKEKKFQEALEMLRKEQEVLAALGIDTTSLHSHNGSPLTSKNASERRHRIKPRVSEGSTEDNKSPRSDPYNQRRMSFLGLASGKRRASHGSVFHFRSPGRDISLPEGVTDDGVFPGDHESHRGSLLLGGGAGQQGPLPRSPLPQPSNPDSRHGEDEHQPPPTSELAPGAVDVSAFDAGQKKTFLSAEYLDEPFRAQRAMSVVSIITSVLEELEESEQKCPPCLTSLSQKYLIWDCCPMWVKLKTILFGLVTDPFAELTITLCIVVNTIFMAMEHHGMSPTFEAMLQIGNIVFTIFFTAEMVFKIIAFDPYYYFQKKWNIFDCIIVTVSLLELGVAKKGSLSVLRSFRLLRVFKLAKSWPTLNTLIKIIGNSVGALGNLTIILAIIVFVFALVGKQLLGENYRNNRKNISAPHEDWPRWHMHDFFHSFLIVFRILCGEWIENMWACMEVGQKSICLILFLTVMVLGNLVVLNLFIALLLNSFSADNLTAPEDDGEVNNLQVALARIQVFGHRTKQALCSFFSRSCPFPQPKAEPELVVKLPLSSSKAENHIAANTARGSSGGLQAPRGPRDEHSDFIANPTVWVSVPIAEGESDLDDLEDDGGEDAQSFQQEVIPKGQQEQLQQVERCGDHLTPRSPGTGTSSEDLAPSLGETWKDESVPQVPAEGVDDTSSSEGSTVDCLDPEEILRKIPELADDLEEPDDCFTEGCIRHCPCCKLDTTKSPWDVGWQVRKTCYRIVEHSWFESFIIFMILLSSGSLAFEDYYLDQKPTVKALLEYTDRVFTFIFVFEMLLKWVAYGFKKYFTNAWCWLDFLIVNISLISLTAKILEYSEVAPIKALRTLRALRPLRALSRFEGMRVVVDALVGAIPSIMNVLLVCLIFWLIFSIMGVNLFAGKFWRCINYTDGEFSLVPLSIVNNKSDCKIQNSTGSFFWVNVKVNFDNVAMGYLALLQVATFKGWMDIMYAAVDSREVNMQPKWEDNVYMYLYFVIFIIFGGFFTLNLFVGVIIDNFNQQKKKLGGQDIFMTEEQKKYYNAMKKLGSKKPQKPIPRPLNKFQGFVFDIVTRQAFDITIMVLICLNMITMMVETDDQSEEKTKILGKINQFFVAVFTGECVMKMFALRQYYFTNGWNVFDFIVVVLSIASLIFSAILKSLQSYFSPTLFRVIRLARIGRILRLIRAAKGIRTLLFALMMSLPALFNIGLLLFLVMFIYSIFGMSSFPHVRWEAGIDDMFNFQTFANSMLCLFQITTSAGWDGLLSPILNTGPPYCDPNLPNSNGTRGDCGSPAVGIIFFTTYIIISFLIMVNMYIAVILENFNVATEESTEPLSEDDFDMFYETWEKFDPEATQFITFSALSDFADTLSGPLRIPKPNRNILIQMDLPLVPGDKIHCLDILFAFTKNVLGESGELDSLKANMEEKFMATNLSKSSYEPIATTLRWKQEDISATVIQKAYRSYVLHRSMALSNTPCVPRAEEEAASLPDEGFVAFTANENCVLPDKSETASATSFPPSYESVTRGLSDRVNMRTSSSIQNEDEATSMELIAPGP

In the case of `Cc1ccc(Oc2ccc(NC(=O)N3CC4CC3CN4C(C)c3ccc(Cl)cc3Cl)cc2)cc1` (stereo not shown) [Example 123, 5-[1-(2,4-Dichloro-phenyl)-ethyl]-2,5-diaza-bicyclo[2.2.1]heptane-2-carboxylic acid (4-p-tolyloxy-phenyl)-amide], the IC50 [1] is reported as 20.8 µM.
With `O=C(Nc1ccc(Cc2ccccc2)cc1)N1CC2CC1CN2C1Cc2ccc(F)cc2C1` (stereo not shown) [Example 124, 5-(5-Fluoro-indan-2-yl)-2,5-diaza-bicyclo[2.2.1]heptane-2-carboxylic acid (4-benzyl-phenyl)-amide] the IC50 [1] was 0.64 µM.
For `O=C(Nc1ccc(Oc2ccccc2)cc1)N1CC2CC1CN2C1Cc2ccc(F)cc2C1` (stereo not shown) [Example 125, 5-(5-Fluoro-indan-2-yl)-2,5-diaza-bicyclo[2.2.1]heptane-2-carboxylic acid (4-phenoxy-phenyl)-amide], the IC50 [1] was 0.78 µM.
Work on `CC(c1ccc(Cl)cc1Cl)N1CC2CC1CN2C(=O)Nc1ccc(C(F)(F)F)cc1` (stereo not shown) [Example 126, 5-[1-(2,4-Dichloro-phenyl)-ethyl]-2,5-diaza-bicyclo[2.2.1]heptane-2-carboxylic acid (4-trifluoromethyl-phenyl)-amide] yielded an IC50 [1] of 22.9 µM.
`Cc1ccc(Oc2ccc(NC(=O)N3CC4CC3CN4C(C)c3ccc(Cl)cc3Cl)cc2)cc1` (stereo not shown) [Example 127, 5-[1-(2,4-Dichloro-phenyl)-ethyl]-2,5-diaza-bicyclo[2.2.1]heptane-2-carboxylic acid (4-p-tolyloxy-phenyl)-amide] gave an IC50 [1] of 22.1 µM.
Compound `CC(c1ccccc1Cl)N1CC2CC1CN2C(=O)Nc1ccc(Oc2ccc(Cl)cc2)cc1` (stereo not shown) [Example 128, 5-[1-(2-Chloro-phenyl)-ethyl]-2,5-diaza-bicyclo[2.2.1]heptane-2-carboxylic acid [4-(4-chloro-phenoxy)-phenyl]-amide] has an IC50 [1] of 1.42 µM.
Compound `CC(c1ccccc1Cl)N1CC2CC1CN2C(=O)Nc1ccc(Oc2ccc(Cl)cc2)cc1` (stereo not shown) [Example 129, 5-[1-(2-Chloro-phenyl)-ethyl]-2,5-diaza-bicyclo[2.2.1]heptane-2-carboxylic acid [4-(4-chloro-phenoxy)-phenyl]-amide] has an IC50 [1] of 3.8 µM.
`O=C(Nc1ccc(C(F)(F)F)cc1)N1CC2CC1CN2C1Cc2ccc(F)cc2C1` (stereo not shown) [Example 130, 5-(5-Fluoro-indan-2-yl)-2,5-diaza-bicyclo[2.2.1]heptane-2-carboxylic acid (4-trifluoromethyl-phenyl)-amide] showed an IC50 [1] of 3.61 µM.
Work on `O=C(Nc1ccc(Oc2ccc(F)cc2)cc1)N1CC2CC1CN2C1Cc2ccc(F)cc2C1` (stereo not shown) [Example 131, 5-(5-Fluoro-indan-2-yl)-2,5-diaza-bicyclo[2.2.1]heptane-2-carboxylic acid [4-(4-fluoro-phenoxy)-phenyl]-amide] yielded an IC50 [1] of 0.55 µM.
Work on `CC(c1ccc(F)cc1Cl)N1CC2CC1CN2C(=O)Nc1ccc(Oc2ccc(F)cc2)cc1` (stereo not shown) [Example 132, 5-[1-(2-Chloro-4-fluoro-phenyl)-ethyl]-2,5-diaza-bicyclo[2.2.1]heptane-2-carboxylic acid [4-(4-fluoro-phenoxy)-phenyl]-amide] yielded an IC50 [1] of 1.14 µM.
In the case of `CC(c1ccc(F)cc1Cl)N1CC2CC1CN2C(=O)Nc1ccc(Oc2ccc(F)cc2)cc1` (stereo not shown) [Example 133, 5-[1-(2-Chloro-4-fluoro-phenyl)-ethyl]-2,5-diaza-bicyclo[2.2.1]heptane-2-carboxylic acid [4-(4-fluoro-phenoxy)-phenyl]-amide], the IC50 [1] is reported as 1.19 µM.
`O=C(Cc1ccc(Oc2ccccc2)cc1)N1CC2CC1CN2C1Cc2ccc(F)cc2C1` (stereo not shown) [Example 134, 1-[5-(5-Fluoro-indan-2-yl)-2,5-diaza-bicyclo[2.2.1]hept-2-yl]-2-(4-phenoxy-phenyl)-ethanone] was tested, and the IC50 [2] was 1.6 µM.
`CC(c1ccccc1Cl)N1CC2CC1CN2C(=O)Cc1ccc(Oc2ccc(F)cc2)cc1` (stereo not shown) [Example 135, 1-{5-[1-(2-Chloro-phenyl)-ethyl]-2,5-diaza-bicyclo[2.2.1]hept-2-yl}-2-[4-(4-fluoro-phenoxy)-phenyl]-ethanone] showed an IC50 [2] of 0.94 µM.
With `CC(c1ccccc1Cl)N1CC2CC1CN2C(=O)Cc1ccc(Oc2ccc(F)cc2)cc1` (stereo not shown) [Example 136, 1-{5-[1-(2-Chloro-phenyl)-ethyl]-2,5-diaza-bicyclo[2.2.1]hept-2-yl}-2-[4-(4-fluoro-phenoxy)-phenyl]-ethanone] the IC50 [2] was 2.41 µM.
`O=C(c1ccc(C(F)(F)F)cc1)N1CC2CC1CN2C1CCc2ccccc2C1` (stereo not shown) [Example 137, [5-(1,2,3,4-Tetrahydro-naphthalen-2-yl)-2,5-diaza-bicyclo[2.2.1]hept-2-yl]-(4-trifluoromethyl-phenyl)-methanone] gave an IC50 [1] of 23.2 µM.
For `O=C(c1ccc(C(F)(F)F)cc1)N1CC2CC1CN2C1CCc2ccc(F)cc2C1` (stereo not shown) [Example 138, [5-(7-Fluoro-1,2,3,4-tetrahydro-naphthalen-2-yl)-2,5-diaza-bicyclo[2.2.1]hept-2-yl]-(4-trifluoromethyl-phenyl)-methanone], the IC50 [1] was 13.3 µM.
`Cc1ccc(Oc2ccc(NC(=O)N3CC4CC3CN4C(C)c3ccccc3Cl)cc2)cc1` (stereo not shown) [Example 139, 5-[1-(2-Chloro-phenyl)-ethyl]-2,5-diaza-bicyclo[2.2.1]heptane-2-carboxylic acid (4-p-tolyloxy-phenyl)-amide] showed an IC50 [1] of 1.16 µM.
In the case of `Cc1ccc(Oc2ccc(NC(=O)N3CC4CC3CN4C(C)c3ccccc3Cl)cc2)cc1` (stereo not shown) [Example 140, 5-[1-(2-Chloro-phenyl)-ethyl]-2,5-diaza-bicyclo[2.2.1]heptane-2-carboxylic acid (4-p-tolyloxy-phenyl)-amide], the IC50 [1] is reported as 1.23 µM.
Compound `O=C(Nc1ccc(Oc2ccccc2)cc1)N1CC2CC1CN2C1CCc2cccc(Cl)c21` (stereo not shown) [Example 141, 5-(7-Chloro-indan-1-yl)-2,5-diaza-bicyclo[2.2.1]heptane-2-carboxylic acid (4-phenoxy-phenyl)-amide] has an IC50 [1] of 0.2 µM.
With `O=C(Cc1ccc(Oc2ccc(F)cc2)cc1)N1CC2CC1CN2C1CCc2ccccc2C1` (stereo not shown) [Example 142, 2-[4-(4-Fluoro-phenoxy)-phenyl]-1-[5-(1,2,3,4-tetrahydro-naphthalen-2-yl)-2,5-diaza-bicyclo[2.2.1]hept-2-yl]-ethanone] the IC50 [2] was 0.28 µM.
In the case of `CC(c1ccccc1Cl)N1CC2CC1CN2C(=O)N(C)c1ccc(Oc2ccc(F)cc2)cc1` (stereo not shown) [Example 143, 5-[1-(2-Chloro-phenyl)-ethyl]-2,5-diaza-bicyclo[2.2.1]heptane-2-carboxylic acid [4-(4-fluoro-phenoxy)-phenyl]-methyl-amide], the IC50 [1] is reported as 3.21 µM.
In the case of `O=C(Cc1ccc(Oc2ccc(F)cc2)cc1)N1CC2CC1CN2C1CCc2cc(F)ccc2C1` (stereo not shown) [Example 144, 2-[4-(4-Fluoro-phenoxy)-phenyl]-1-[5-(6-fluoro-1,2,3,4-tetrahydro-naphthalen-2-yl)-2,5-diaza-bicyclo[2.2.1]hept-2-yl]-ethanone], the IC50 [2] is reported as 1.6 µM.
`O=C(NCc1ccc(Oc2ccccc2)cc1)N1CC2CC1CN2C1Cc2ccc(F)cc2C1` (stereo not shown) [Example 145, 5-(5-Fluoro-indan-2-yl)-2,5-diaza-bicyclo[2.2.1]heptane-2-carboxylic acid 4-phenoxy-benzylamide] gave an IC50 [1] of 1.44 µM.
In the case of `O=C(NCc1ccc(Oc2ccc(F)cc2)cc1)N1CC2CC1CN2C1Cc2ccc(F)cc2C1` (stereo not shown) [Example 146, 5-(5-Fluoro-indan-2-yl)-2,5-diaza-bicyclo[2.2.1]heptane-2-carboxylic acid 4-(4-fluoro-phenoxy)-benzylamide], the IC50 [1] is reported as 1.28 µM.
`O=C(Cc1ccc(C(F)(F)F)cc1)N1CC2CC1CN2C1CCc2ccccc2C1` (stereo not shown) [Example 147, 1-[5-(1,2,3,4-Tetrahydro-naphthalen-2-yl)-2,5-diaza-bicyclo[2.2.1]hept-2-yl]-2-(4-trifluoromethyl-phenyl)-ethanone] showed an IC50 [2] of 3.1 µM.
Work on `O=C(Cc1ccc(C(F)(F)F)cc1)N1CC2CC1CN2C1CCc2ccc(F)cc2C1` (stereo not shown) [Example 148, 1-[5-(7-Fluoro-1,2,3,4-tetrahydro-naphthalen-2-yl)-2,5-diaza-bicyclo[2.2.1]hept-2-yl]-2-(4-trifluoromethyl-phenyl)-ethanone] yielded an IC50 [2] of 2.39 µM.
With `CC(c1ccccc1Cl)N1CC2CC1CN2C(=O)c1cc2ccccc2[nH]1` (stereo not shown) [Example 149, {5-[1-(2-Chloro-phenyl)-ethyl]-2,5-diaza-bicyclo[2.2.1]hept-2-yl}-(1H-indol-2-yl)-methanone] the IC50 [1] was 5.84 µM.
With `CC(c1ccccc1Cl)N1CC2CC1CN2C(=O)c1cc2cc(Cl)ccc2[nH]1` (stereo not shown) [Example 150, (5-Chloro-1H-indol-2-yl)-{5-[1-(2-chloro-phenyl)-ethyl]-2,5-diaza-bicyclo[2.2.1]hept-2-yl}-methanone] the IC50 [1] was 18.2 µM.
With `CC(c1ccccc1Cl)N1CC2CC1CN2C(=O)c1ccc(Oc2ccc(F)cc2)cc1` (stereo not shown) [Example 151, {5-[1-(2-Chloro-phenyl)-ethyl]-2,5-diaza-bicyclo[2.2.1]hept-2-yl}-[4-(4-fluoro-phenoxy)-phenyl]-methanone] the IC50 [1] was 1.11 µM.
Compound `CC(c1ccccc1Cl)N1CC2CC1CN2C(=O)c1ccc(Oc2ccc(F)cc2)cc1` (stereo not shown) [Example 152, {5-[1-(2-Chloro-phenyl)-ethyl]-2,5-diaza-bicyclo[2.2.1]hept-2-yl}-[4-(4-fluoro-phenoxy)-phenyl]-methanone] has an IC50 [1] of 2.52 µM.
Compound `CC(c1ccccc1Br)N1CC2CC1CN2C(=O)Cc1ccc(Oc2ccc(F)cc2)cc1` (stereo not shown) [Example 153, 1-{5-[1-(2-Bromo-phenyl)-ethyl]-2,5-diaza-bicyclo[2.2.1]hept-2-yl}-2-[4-(4-fluoro-phenoxy)-phenyl]-ethanone] has an IC50 [2] of 3.33 µM.
In the case of `CC(c1ccccc1Br)N1CC2CC1CN2C(=O)Cc1ccc(Oc2ccc(F)cc2)cc1` (stereo not shown) [Example 154, 1-{5-[1-(2-Bromo-phenyl)-ethyl]-2,5-diaza-bicyclo[2.2.1]hept-2-yl}-2-[4-(4-fluoro-phenoxy)-phenyl]-ethanone], the IC50 [2] is reported as 4.31 µM.
Work on `CC(c1ccc(Cl)cc1Cl)N1CC2CC1CN2C(=O)Cc1ccc(Oc2ccc(F)cc2)cc1` (stereo not shown) [Example 155, 1-{5-[1-(2,4-Dichloro-phenyl)-ethyl]-2,5-diaza-bicyclo[2.2.1]hept-2-yl}-2-[4-(4-fluoro-phenoxy)-phenyl]-ethanone] yielded an IC50 [2] of 18.2 µM.
Work on `CC(c1ccccc1Br)N1CC2CC1CN2C(=O)c1ccc(Oc2ccccc2)cc1` (stereo not shown) [Example 159, {5-[1-(2-Bromo-phenyl)-ethyl]-2,5-diaza-bicyclo[2.2.1]hept-2-yl}-(4-phenoxy-phenyl)-methanone] yielded an IC50 [1] of 14.8 µM.
